Holding throughout (type): biochemical
In assay [1] the target is VEGF-R2 kinase domain (Rattus norvegicus, UniProt O08775). The assay can be described thus: VEGF-R2 Screening Assay. As to conditions: 10 μM ATP, biotinylated PLC1 peptide substrate, 33P-γ-ATP FlashPlate; read-out: Kinase IC50 VEGFR. The method, then: A kinase reaction mixture was prepared containing 50 mM Tris.HCl pH=8, 10 mM MgCl2, 0.1 mM Na3PO4, 1 mM DTT, 10 μM ATP, 0.025 μM biotinylated peptide substrate and 0.8 μCuries per well ^33P-γ-ATP (2000-3000 Ci/mmol). 70 μL of the kinase reaction mixture was dispensed into the well of a streptavidin coated FlashPlate™ (Cat. # SMP103, NEN, Boston, Mass.). Then 1 μL of test compound stock in 100% DMSO was added to the wells resulting in a final concentration of 1% DMSO in the reaction well with a 100 μL final reaction well volume.
Sequence of VEGF-R2 kinase domain (O08775 786-1343): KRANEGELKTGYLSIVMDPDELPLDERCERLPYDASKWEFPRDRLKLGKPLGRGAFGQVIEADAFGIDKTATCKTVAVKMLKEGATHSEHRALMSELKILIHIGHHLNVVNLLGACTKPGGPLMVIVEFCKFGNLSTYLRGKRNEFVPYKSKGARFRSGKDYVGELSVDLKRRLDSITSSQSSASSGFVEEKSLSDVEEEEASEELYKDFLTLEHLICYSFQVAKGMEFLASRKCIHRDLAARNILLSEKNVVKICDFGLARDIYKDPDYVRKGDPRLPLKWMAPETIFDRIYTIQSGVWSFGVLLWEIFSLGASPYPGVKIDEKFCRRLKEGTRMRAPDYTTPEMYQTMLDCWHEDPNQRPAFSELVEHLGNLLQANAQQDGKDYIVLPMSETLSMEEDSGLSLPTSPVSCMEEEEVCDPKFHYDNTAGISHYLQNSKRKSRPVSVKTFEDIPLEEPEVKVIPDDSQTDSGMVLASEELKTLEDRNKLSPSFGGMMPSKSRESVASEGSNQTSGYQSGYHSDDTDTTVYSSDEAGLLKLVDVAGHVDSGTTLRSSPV
The soluble rat tyrosine kinase containing an N-terminal 6×HIS tag was diluted in 50 mM Tris.HCl pH=8.0, 0.1% BSA at a concentration of 5 ng per μL and 30 μL (150 ng enzyme per test well) was added to each well to initiate the reaction. The reaction was incubated for one hour at 30° C. At the end of the one hour incubation, the reaction was terminated by aspirating the reaction mixture from the plate and washing the wells twice with PBS containing 100 mM EDTA. The PLC1 biotinylated peptide substrate became immobilized on the Flashplate™ and the incorporation of ^33P-γ-ATP was measured by reading the plate on a scintillation counter. Inhibition of the enzymatic activity of the VEGF-R was measured by observing a reduced amount of ^33P-γ-ATP incorporated into the immobilized peptide.
The VEGF-R kinase assay was carried out using the CDK kinase assay procedure except that the enzyme was replaced with the VEGF-R2 fusion protein containing a polyhistidine tag at the N-terminus followed by amino acids 786-1343 of the rat VEGF-R2 kinase domain (GenBank Accession #U93306).
(§1) An IC50 listed as >0.1, >1, >10 or >100 means no observed 50% inhibition at the indicated test concentration. […] ND means the compound was not tested in the assay specified.

Assay [2] addresses T1, CDK1:Cyclin-B (Homo sapiens, UniProt P06493).
T1 construct: purchased New England Biolabs, Beverly, Mass; 6020; host or cells: insect cells
The assay can be described thus: CDK1 Screening Assay. Conditions: 10 μM ATP, biotinylated histone-H1 peptide substrate, 33P-γ-ATP FlashPlate; read-out: Kinase IC50 CDK1. The method, then:
(§2) A kinase reaction mixture was prepared containing 50 mM Tris.HCl pH=8, 10 mM MgCl2, 0.1 mM Na3PO4, 1 mM DTT, 10 μM ATP, 0.025 μM biotinylated histone-H1 peptide substrate and 0.2 μCuries per well ^33P-γ-ATP (2000-3000 Ci/mmol). 70 μL of the kinase reaction mixture was dispensed into the well of a streptavidin coated FlashPlate™ (Cat. # SMP103, NEN, Boston, Mass.). Then 1 μL of test compound stock in 100% DMSO was added to the wells resulting in a final concentration of 1% DMSO in the reaction well with a 100 μL final reaction well volume.
(§3) The CDK1:Cyclin-B protein was diluted in 50 mM Tris.HCl pH=8.0, 0.1% BSA at a concentration of 1 ng per μL and 30 μL (30 ng enzyme per test well) was added to each well to initiate the reaction. The reaction was incubated for one hour at 30° C. At the end of the one hour incubation, the reaction was terminated by aspirating the mixture from the plate and washing the wells twice with PBS containing 100 mM EDTA. The histone-H1 biotinylated peptide substrate became immobilized on the Flashplate™ and the incorporation of ^33P-γ-ATP was measured by reading the plate on a scintillation counter. Inhibition of the enzymatic activity of CDK1 was measured by observing a reduced amount of ^33P-γ-ATP incorporated into the immobilized peptide.
The CDK1 kinase used was isolated from insect cells expressing both the human CDK1 catalytic subunit and its positive regulatory subunit cyclin B (New England Biolabs, Beverly, Mass., Cat. # 6020).
as §1

For assay [3], the target named is T2, CDK2:Cyclin A (Homo sapiens, UniProt P24941).
T2 construct: purchased Upstate Biotech, Lake Placid, N.Y
The assay can be described thus: CDK2 Screening Assay. Conditions: 10 μM ATP, biotinylated histone-H1 peptide substrate, 33P-γ-ATP FlashPlate; read-out: Kinase IC50 CDK2. The method, then: as §2
as §3, with “CDK2:Cyclin A” for “CDK1:Cyclin-B”, “CDK2” for “CDK1”
The CDK2 kinase used was complexed with cyclin A and is commercially available (Upstate Biotech, Lake Placid, N.Y.).
as §1

Some results are limits rather than exact numbers.

As a reminder, the IC50 is the midpoint of a concentration-inhibition curve.

T1 sequence (P06493 whole entry): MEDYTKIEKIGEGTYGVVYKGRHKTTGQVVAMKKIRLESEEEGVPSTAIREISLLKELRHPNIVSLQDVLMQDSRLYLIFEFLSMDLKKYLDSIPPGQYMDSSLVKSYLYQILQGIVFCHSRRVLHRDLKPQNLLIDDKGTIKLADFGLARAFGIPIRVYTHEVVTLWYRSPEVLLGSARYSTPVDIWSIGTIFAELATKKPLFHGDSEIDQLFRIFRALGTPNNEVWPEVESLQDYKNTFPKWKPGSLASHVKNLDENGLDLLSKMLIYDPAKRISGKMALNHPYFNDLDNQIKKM
T1 sequence (P14635 whole entry partner): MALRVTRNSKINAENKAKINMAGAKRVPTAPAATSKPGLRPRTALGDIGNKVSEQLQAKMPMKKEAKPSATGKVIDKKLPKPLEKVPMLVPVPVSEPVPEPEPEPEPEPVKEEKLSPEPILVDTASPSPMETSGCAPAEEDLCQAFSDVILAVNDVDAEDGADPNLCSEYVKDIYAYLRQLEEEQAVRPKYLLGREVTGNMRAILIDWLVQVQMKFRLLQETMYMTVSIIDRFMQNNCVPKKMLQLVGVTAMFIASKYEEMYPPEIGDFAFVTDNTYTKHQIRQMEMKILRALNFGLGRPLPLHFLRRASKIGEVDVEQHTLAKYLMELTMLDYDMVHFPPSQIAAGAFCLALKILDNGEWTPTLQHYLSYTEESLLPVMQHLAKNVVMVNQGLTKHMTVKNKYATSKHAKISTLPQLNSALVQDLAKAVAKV

On to `O=C(Nc1cccc2sc(Nc3ccccc3)nc12)c1cc(C(F)(F)F)cc(C(F)(F)F)c1` [Cpd 31, N-(2-phenylamino-benzothiazol-4-yl)-3,5-bis-trifluoromethyl-benzamide], for which the IC50 is > 100 µM in assay [1], 55.3 µM in assay [2] and 3.03 µM in assay [3].

`O=C(Nc1ccccc1F)Nc1cccc2sc(Nc3ccccc3)nc12` [Cpd 7, 1-(2-fluoro-phenyl)-3-(2-phenylamino-benzothiazol-4-yl)-urea]: the 50% inhibitory concentration (IC50) in assay [1] is > 100 µM; in assay [2] it was > 100 µM; in assay [3], 17.4 µM.

On to `CCC(=O)Nc1cccc2sc(Nc3ccccc3)nc12` [Cpd 26, N-(2-phenylamino-benzothiazol-4-yl)-propionamide], for which the IC50 in assay [1] was > 100 µM; in assay [2], > 100 µM; in assay [3] it was 3.67 µM.

As to `O=C(Nc1cccc2sc(Nc3ccccc3)nc12)c1ccco1` [Cpd 37, furan-2-carboxylic acid (2-phenylamino-benzothiazol-4-yl)-amide], the IC50 in assay [1] was > 100 µM; in assay [2], > 100 µM; in assay [3], 8.02 µM.

Turning to `O=C(Nc1cccc2sc(Nc3ccccc3)nc12)c1c(Cl)cccc1Cl` [Cpd 47, 2,6-dichloro-N-(2-phenylamino-benzothiazol-4-yl)-benzamide], the IC50 in assay [1] is > 100 µM; in assay [2], 4.3 µM; in assay [3] it was 0.611 µM.

As for `CC(C)(C)C(=O)Nc1cccc2sc(Nc3ccccc3)nc12` [Cpd 57, 2,2-dimethyl-N-(2-phenylamino-benzothiazol-4-yl)-propionamide], the IC50 in assay [1] was > 100 µM; in assay [2], > 100 µM; in assay [3], 13.3 µM.

For `O=C(Nc1cccc2sc(Nc3ccccc3)nc12)C1CCCCCC1` [Cpd 55, cycloheptanecarboxylic acid (2-phenylamino-benzothiazol-4-yl)-amide], the 50% inhibitory concentration (IC50) in assay [1], in assay [2] and in assay [3] was > 100 µM each time.

On to `O=C(Nc1cccc2sc(Nc3ccccc3)nc12)c1ccc2c(c1)OCO2` [Cpd 29, benzo[1,3]dioxole-5-carboxylic acid (2-phenylamino-benzothiazol-4-yl)-amide], for which the IC50 in assay [1] is > 100 µM; in assay [2] it was > 100 µM; in assay [3], 11.6 µM.

In the case of `N#Cc1cccc(C(=O)Nc2cccc3sc(Nc4ccccc4)nc23)c1` [Cpd 38, 3-cyano-N-(2-phenylamino-benzothiazol-4-yl)-benzamide], the IC50 in assay [1] was > 100 µM; in assay [2] it was > 100 µM; in assay [3], 11 µM.

Consider `Cc1cc(C(=O)Nc2cccc3sc(Nc4ccccc4)nc23)n(C)n1` [Cpd 13, 2,5-dimethyl-2H-pyrazole-3-carboxylic acid (2-phenylamino-benzothiazol-4-yl)-amide], for which the IC50 in assay [1] was > 100 µM; in assay [2], > 10 µM; in assay [3], 3.34 µM.

For `COc1ccc(Nc2nc3c(NC(=O)c4c(F)ccc(C)c4F)cccc3s2)cc1` [Cpd 11, 2,6-difluoro-N-[2-(4-methoxy-phenylamino)-benzothiazol-4-yl]-3-methyl-benzamide], the values for the IC50 in assay [1], in assay [2] and in assay [3] were > 100 µM, > 100 µM and > 10 µM, respectively.

In the case of `O=C(CCc1ccccc1)Nc1cccc2sc(Nc3ccccc3)nc12` [Cpd 54, 3-phenyl-N-(2-phenylamino-benzothiazol-4-yl)-propionamide], the IC50 in assay [1], in assay [2] and in assay [3] was > 100 µM each time.

On to `O=C(Cc1ccccc1)Nc1cccc2sc(Nc3ccccc3)nc12` [Cpd 51, 2-phenyl-N-(2-phenylamino-benzothiazol-4-yl)-acetamide], for which the concentration for half-maximal inhibition (IC50) was > 100 µM in assay [1], > 100 µM in assay [2] and 1.19 µM in assay [3].

As to `Cc1ccc(F)c(C(=O)N(C)c2cccc3sc(Nc4ccccc4)nc23)c1F` [Cpd 62, 2,6-difluoro-3,N-dimethyl-N-(2-phenylamino-benzothiazol-4-yl)-benzamide], the 50% inhibitory concentration (IC50) in assay [1], in assay [2] and in assay [3] was > 100 µM each time.

Take `Cc1ccc(Nc2nc3c(NC(=O)c4c(F)ccc(C)c4F)cccc3s2)cc1` [Cpd 14, 2,6-difluoro-3-methyl-N-(2-p-tolylamino-benzothiazol-4-yl)-benzamide]: the IC50 in assay [1] is > 100 µM; in assay [2], > 100 µM; in assay [3], 3.09 µM.

As to `CCc1ccc(C(=O)Nc2cccc3sc(Nc4ccccc4)nc23)s1` [Cpd 42, 5-ethyl-thiophene-2-carboxylic acid (2-phenylamino-benzothiazol-4-yl)-amide], the IC50 in assay [1], in assay [2] and in assay [3] was > 100 µM each time.

In the case of `O=C(Nc1cccc2sc(Nc3ccccc3)nc12)c1cccs1` [Cpd 35, thiophene-2-carboxylic acid (2-phenylamino-benzothiazol-4-yl)-amide], the IC50 in assay [1], in assay [2] and in assay [3] was > 100 µM throughout.

On to `O=C(Nc1cccc2sc(Nc3ccccc3)nc12)c1cc2ccccc2s1` [Cpd 50, benzo[b]thiophene-2-carboxylic acid (2-phenylamino-benzothiazol-4-yl)-amide], for which the half-maximal inhibitory concentration (IC50) in assay [1], in assay [2] and in assay [3] was > 100 µM in each case.

With `Cc1nnsc1C(=O)Nc1cccc2sc(Nc3ccccc3)nc12` [Cpd 56, 4-methyl-[1,2,3]thiadiazole-5-carboxylic acid (2-phenylamino-benzothiazol-4-yl)-amide], the IC50 in assay [1] is > 100 µM; in assay [2] it was > 100 µM; in assay [3], > 10 µM.

Regarding `O=C(Nc1cccc2sc(Nc3ccccc3)nc12)c1cccc(Br)c1` [Cpd 33, 3-bromo-N-(2-phenylamino-benzothiazol-4-yl)-benzamide], the IC50 in assay [1], in assay [2] and in assay [3] was > 100 µM each time.

Turning to `O=C(Nc1cccc2sc(Nc3ccccc3)nc12)Oc1ccccc1` [Cpd 53, (2-phenylamino-benzothiazol-4-yl)-carbamic acid phenyl ester], the half-maximal inhibitory concentration (IC50) in assay [1], in assay [2] and in assay [3] was > 100 µM each time.

For `Cc1ccc(F)c(C(=O)Nc2cccc3sc(Nc4ccc(N5CCN(C)CC5)cc4)nc23)c1F` [Cpd 49, 2,6-difluoro-3-methyl-N-{2-[4-(4-methyl-piperazin-1-yl)-phenylamino]-benzothiazol-4-yl}-benzamide], the values for the IC50 in assay [1], in assay [2] and in assay [3] were ≥ 100 µM, 2.71 µM and 0.679 µM, respectively.

On to `O=C(Nc1cccc2sc(Nc3ccccc3)nc12)c1cccc([N+](=O)[O-])c1` [Cpd 19, 3-nitro-N-(2-phenylamino-benzothiazol-4-yl)-benzamide], for which the IC50 in assay [1] is > 100 µM; in assay [2], > 100 µM; in assay [3] it was 10.8 µM.
